Reference: US20200046811A1, “METHODS AND COMPOSITIONS FOR MODULATING FGF23 LEVELS” (Northwestern University, priority 2014, published 2020)

Legend:
Klotho (kl/kl) mice = test: TM5441 treatment of Klotho mice, plasma FGF23 by ELISA; assay type: in vivo; settings: 100 mg/kg/day in chow for 120 days, C-Term ELISA (FIG. 1)
Procedure: Four week old Klotho (kl/kl) mice (n=11) were administered TM5441 at the dose of 100 mg/kg/day for 120 days. The chow diet containing the inhibitor was prepared by mixing a homogenous suspension of TM5441 made in 0.5% Carboxy Methyl Cellulose into the powder chow diet (Harland Teklad LM-485 number 7012). The plasma levels of FGF23 was measured using an ELISA kit (Immutopics, Inc. Mouse/Rat FGF-23 (C-Term) ELISA Kit, Cat. #60-6300) by following the manufacturer's protocol.

[1] = molecular target: T1, recombinant human stable PAI-1 (Homo sapiens, UniProt P05121, K177T/M377I/N173H/Q342L); test: In vitro FGF23 proteolysis by t-PA with PAI-1 and added TM5441; assay type: biochemical; settings: TM5441 added to t-PA + PAI-1 reaction, 4 hours at 37° C., silver stained SDS-PAGE, FIG. 3
T1 construct: purchased Molecular Innovations Inc., Novi, Mich
T1 sequence (P05121 24-402 N173H/K177T/Q342L/M377I): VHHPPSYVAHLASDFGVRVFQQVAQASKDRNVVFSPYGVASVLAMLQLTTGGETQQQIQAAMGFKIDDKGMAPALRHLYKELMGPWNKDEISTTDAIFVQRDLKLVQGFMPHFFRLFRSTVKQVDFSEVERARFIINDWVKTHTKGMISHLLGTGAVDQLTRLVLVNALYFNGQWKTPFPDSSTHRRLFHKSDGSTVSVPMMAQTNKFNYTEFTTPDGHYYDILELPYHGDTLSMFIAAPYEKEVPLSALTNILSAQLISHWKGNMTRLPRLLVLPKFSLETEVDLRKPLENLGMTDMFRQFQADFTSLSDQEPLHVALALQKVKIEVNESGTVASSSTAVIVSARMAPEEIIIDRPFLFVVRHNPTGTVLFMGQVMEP
Procedure: (§1) Recombinant human t-PA, uPA, and stable PAI-1 were obtained from Molecular Innovations Inc., Novi, Mich. Recombinant Human FGF23 was obtained from R and D Systems Inc., Minneapolis Minn.
TM5441 was obtained from Toshio Miyata, M. D., Ph.D. and Renascience, Inc. A stock solution of 2.5 mM was prepared in DMSO.
(§2) Gels were silver stained using the Pierce Silver Stain Kit from Thermo Fisher Scientific Inc. Waltham, Mass., according to the manufacturer's protocol.
(§3) Recombinant human FGF23 (1-1.5 μg) was incubated at 37° C. for 4 hours (or other time point indicated) with either recombinant human t-PA (1.1 μg) or uPA (1.1 μg), (in addition to 1.70 μg of recombinant human stable PAI-1 where indicated) in reaction buffer (25 μl final volume) containing: 50 mM Tris-HCl pH 8.0, 150 mM NaCl, 200 mM CHAPS, 0.1% PEG-8000, and 1% DMSO. To terminate the reaction, samples were incubated at 95° C. for 5 minutes in the presence of 1×NuPAGE LDS sample buffer and 1× NuPAGE sample reducing agent.

Recombinant human FGF23 = test: In vitro protease reactions: FGF23 proteolysis by t-PA or uPA (silver stained SDS-PAGE, western blot); assay type: biochemical
Source text: as §1
The 6×His tag antibody was obtained from Abcam Inc., Cambridge Mass., and the FGF23 antibody was obtained from Santa Cruz Biotechnology Inc., Dallas Tex. Secondary HRP conjugated donkey anti goat (cross-adsorbed) and goat anti-rabbit antibodies were obtained from Bethyl Laboratories Inc., Montgomery, Tex., and Molecular Innovations Inc. respectively. 4-12% NuPAGE Bis-Tris Gels, PVDF iblot gel transfer stacks, 4×NuPAGE LDS sample buffer and 10×NuPAGE sample reducing agent were from Life Technologies Inc., Carlsbad, Calif. Luminata Forte Western HRP Substrate detection reagent was from EMD Millipore Inc., Billerica, Mass.
as §2
as §3, with “To terminate the reaction, samples were incubated at 95° C. for 5 minutes in the presence of 1×NuPAGE LDS sample buffer and 1× NuPAGE sample reducing agent.” left out

Compound	FGF23 plasma levels (Klotho (kl/kl) mice)	Effect on PAI-1-inhibited FGF23 proteolysis by t-PA [1]	FGF23 proteolytic cleavage (smaller fragments on silver stained SDS-PAGE gel) (Recombinant human FGF23; 4 hours at 37° C., FIG. 2)	FGF23 fragments by western blot (Recombinant human FGF23; t-PA, various time points at 37° C., N-term and C-term fragments, FIG. 4)
O=C(COCC(=O)Nc1ccc(Cl)cc1C(=O)O)Nc1cccc(-c2ccoc2)c1 [TM5441]	markedly reduced	restored	–	–
t-PA: Recombinant human t-PA (tissue plasminogen activator) from Molecular Innovations Inc.	–	–	smaller fragments are generated	confirmed to be of FGF23 origin
